What was measured:
TSPO [1] = biological target: T1, TSPO (Rattus norvegicus, UniProt P16257); experiment: Ex vivo biodistribution of [^11C]CB184 in control and HSE rats
T1 construct: from tissue; host or cells: Brain regions and peripheral organs of male Wistar rats, measured in vivo by PET and ex vivo by gamma counting
Experimental: PET scans were performed using a microPET Focus 220 camera (Siemens Medical Solutions Inc., Malvern, PA) on either day 6 or day 7 after inoculation with HSV-1 [18], depending on the severity of clinical symptoms. The rats were anaesthetized with 5 % isoflurane mixed with medical air at a flow rate of […]. After induction, anaesthesia was maintained with 1.5 – 2 % of isoflurane. The anaesthetized rats were positioned in the camera in a supine position with the head in the field of view. The PET tracer [^11C]CB184 was manually injected via the penile vein, and at the same time a dynamic 60-min scan was started. […] For 30 min the animals were kept under anaesthesia on the operation table after injection of the PET tracer into the penile vein, and were then placed in the scanner for a 30-min dynamic scan. A transmission scan was obtained in all rats using a ^57Co point source for attenuation and scatter correction. In the pretreated group, 5 mg/kg unlabelled PK11195 (Sigma-Aldrich, St. Louis, MO) in dimethyl sulphoxide (DMSO) at a concentration of 10 mg/ml was administered via a tail vein 5 min before injection of the PET tracer.
The brain and peripheral organs were excised and dissected, and blood was centrifuged to collect a plasma sample. Tissues were weighed and radioactivity was measured in a gamma counter (LKB Wallac, Turku, Finland). Tracer uptake in each region was corrected for the injected tracer dose and body weight and expressed as standardized uptake value (SUV), which was defined as: radioactivity (MBq/cm^3)/[injected dose (MBq)/body weight (g)].

[2] = Radioactive metabolites of [^11C]CB184 in brain; format: in vivo, rat; conditions: 30 min after injection
Experimental: To determine if radioactive metabolites of [^11C]CB184 entered the brain, the brain of one control rat and one HSE rat were isolated 30 min after injection and homogenized with a solution of ice-cold acetonitrile (3 ml). The homogenate was centrifuged at 6,000 rpm (3,461 g) for 10 min. The supernatant was then collected and processed by HPLC, as described above.

TSPO [3] = biological target: TSPO; set-up: method as in PMID 25616581; conditions: cited from earlier work
TSPO [4] = test system: TSPO; set-up: method as in PMID 25616581; conditions: 6-hydroxydopamine-injured striatum in rats; cited from earlier work
[5] = lipophilicity; cited from earlier work
TSPO [6] = conditions: normal mice; cited from earlier work
[7] = HSE rats pretreated with 5 mg/kg PK11195, approximately 75 min after injection
[8] = HSE rats, approximately 75 min after injection
[9] = control (PBS) rats pretreated with 5 mg/kg PK11195, approximately 75 min after injection
[10] = control rats, approximately 75 min after injection

CCCN(CCC)C(=O)Cc1c(-c2ccc(O[11CH3])cc2)nc2c(Cl)cc(Cl)cn12 [[^11C]CB184]
SUV ex vivo, Adrenals (TSPO [1]; [7]): 8.14 ± 7.09 SUV
SUV ex vivo, Bone (TSPO [1]; [7]): 0.39 ± 0.24 SUV
SUV ex vivo, Colon (TSPO [1]; [7]): 0.49 ± 0.36 SUV
SUV ex vivo, Fat (TSPO [1]; [7]): 0.72 ± 0.49 SUV
SUV ex vivo, Heart (TSPO [1]; [7]): 0.77 ± 0.53 SUV
SUV ex vivo, Hippocampus (TSPO [1]; [7]): 0.09 ± 0.05 SUV
SUV ex vivo, Ileum (TSPO [1]; [7]): 2.74 ± 1.77 SUV
SUV ex vivo, Kidney (TSPO [1]; [7]): 1.12 ± 0.75 SUV
SUV ex vivo, Liver (TSPO [1]; [7]): 10.71 ± 9.25 SUV
SUV ex vivo, Lung (TSPO [1]; [7]): 1.62 ± 0.98 SUV
SUV ex vivo, Medulla (TSPO [1]; [7]): 0.13 ± 0.06 SUV
SUV ex vivo, Pancreas (TSPO [1]; [7]): 0.62 ± 0.37 SUV
SUV ex vivo, Parietal/temporal/occipital cortex (TSPO [1]; [7]): 0.10 ± 0.05 SUV
SUV ex vivo, Plasma (TSPO [1]; [7]): 0.19 ± 0.04 SUV
SUV ex vivo, Pons (TSPO [1]; [7]): 0.12 ± 0.10 SUV
SUV ex vivo, Red blood cells (TSPO [1]; [7]): 0.11 ± 0.07 SUV
SUV ex vivo, Spleen (TSPO [1]; [7]): 0.71 ± 0.55 SUV
SUV ex vivo, Stomach (TSPO [1]; [7]): 0.82 ± 0.60 SUV
SUV ex vivo, Striatum (TSPO [1]; [7]): 0.09 ± 0.06 SUV
SUV ex vivo, Submandibularis (TSPO [1]; [7]): 0.79 ± 0.56 SUV
SUV ex vivo, Testis (TSPO [1]; [7]): 0.29 ± 0.21 SUV
SUV ex vivo, Thymus (TSPO [1]; [7]): 0.74 ± 0.46 SUV
SUV ex vivo, Whole brain (TSPO [1]; [7]): 0.08 ± 0.08 SUV
SUV ex vivo, Adrenals (TSPO [1]; [8]): 13.86 ± 4.42 SUV
SUV ex vivo, Amygdala/piriform cortex (TSPO [1]; [8]): 0.52 ± 0.21 SUV
SUV ex vivo, Bone (TSPO [1]; [8]): 0.98 ± 0.14 SUV
SUV ex vivo, Colon (TSPO [1]; [8]): 3.29 ± 0.81 SUV
SUV ex vivo, Fat (TSPO [1]; [8]): 0.57 ± 0.39 SUV
SUV ex vivo, Heart (TSPO [1]; [8]): 23.69 ± 2.71 SUV
SUV ex vivo, Hippocampus (TSPO [1]; [8]): 0.55 ± 0.21 SUV
SUV ex vivo, Ileum (TSPO [1]; [8]): 6.20 ± 2.67 SUV
SUV ex vivo, Kidney (TSPO [1]; [8]): 13.17 ± 2.25 SUV
SUV ex vivo, Liver (TSPO [1]; [8]): 7.97 ± 1.73 SUV
SUV ex vivo, Lung (TSPO [1]; [8]): 22.53 ± 2.41 SUV
SUV ex vivo, Medulla (TSPO [1]; [8]): 1.51 ± 0.57 SUV
SUV ex vivo, Olfactory bulb (TSPO [1]; [8]): 1.52 ± 0.22 SUV
SUV ex vivo, Pancreas (TSPO [1]; [8]): 4.23 ± 0.76 SUV
SUV ex vivo, Parietal/temporal/occipital cortex (TSPO [1]; [8]): 0.41 ± 0.14 SUV
SUV ex vivo, Plasma (TSPO [1]; [8]): 0.28 ± 0.24 SUV
SUV ex vivo, Pons (TSPO [1]; [8]): 1.26 ± 0.52 SUV
SUV ex vivo, Red blood cells (TSPO [1]; [8]): 0.13 ± 0.01 SUV
SUV ex vivo, Spleen (TSPO [1]; [8]): 11.76 ± 1.42 SUV
SUV ex vivo, Stomach (TSPO [1]; [8]): 5.88 ± 1.87 SUV
SUV ex vivo, Striatum (TSPO [1]; [8]): 0.45 ± 0.15 SUV
SUV ex vivo, Submandibularis (TSPO [1]; [8]): 4.89 ± 0.75 SUV
SUV ex vivo, Testis (TSPO [1]; [8]): 0.88 ± 0.12 SUV
SUV ex vivo, Thymus (TSPO [1]; [8]): 3.23 ± 0.33 SUV
SUV ex vivo, Whole brain (TSPO [1]; [8]): 0.99 ± 0.21 SUV
SUV ex vivo, Adrenals (TSPO [1]; [9]): 7.72 ± 5.20 SUV
SUV ex vivo, Bone (TSPO [1]; [9]): 0.31 ± 0.19 SUV
SUV ex vivo, Colon (TSPO [1]; [9]): 0.42 ± 0.24 SUV
SUV ex vivo, Fat (TSPO [1]; [9]): 0.48 ± 0.18 SUV
SUV ex vivo, Heart (TSPO [1]; [9]): 0.68 ± 0.40 SUV
SUV ex vivo, Hippocampus (TSPO [1]; [9]): 0.12 ± 0.08 SUV
SUV ex vivo, Ileum (TSPO [1]; [9]): 2.31 ± 1.15 SUV
SUV ex vivo, Kidney (TSPO [1]; [9]): 0.72 ± 0.44 SUV
SUV ex vivo, Liver (TSPO [1]; [9]): 11.28 ± 5.43 SUV
SUV ex vivo, Lung (TSPO [1]; [9]): 0.95 ± 0.57 SUV
SUV ex vivo, Medulla (TSPO [1]; [9]): 0.12 ± 0.07 SUV
SUV ex vivo, Pancreas (TSPO [1]; [9]): 0.57 ± 0.34 SUV
SUV ex vivo, Parietal/temporal/occipital cortex (TSPO [1]; [9]): 0.10 ± 0.06 SUV
SUV ex vivo, Plasma (TSPO [1]; [9]): 0.27 ± 0.15 SUV
SUV ex vivo, Pons (TSPO [1]; [9]): 0.12 ± 0.08 SUV
SUV ex vivo, Red blood cells (TSPO [1]; [9]): 0.11 ± 0.05 SUV
SUV ex vivo, Spleen (TSPO [1]; [9]): 0.70 ± 0.47 SUV
SUV ex vivo, Stomach (TSPO [1]; [9]): 0.70 ± 0.46 SUV
SUV ex vivo, Striatum (TSPO [1]; [9]): 0.11 ± 0.07 SUV
SUV ex vivo, Submandibularis (TSPO [1]; [9]): 0.70 ± 0.46 SUV
SUV ex vivo, Testis (TSPO [1]; [9]): 0.30 ± 0.24 SUV
SUV ex vivo, Thymus (TSPO [1]; [9]): 0.72 ± 0.44 SUV
SUV ex vivo, Whole brain (TSPO [1]; [9]): 0.15 ± 0.08 SUV
SUV ex vivo, Adrenals (TSPO [1]; [10]): 14.84 ± 5.45 SUV
SUV ex vivo, Bone (TSPO [1]; [10]): 1.00 ± 0.26 SUV
SUV ex vivo, Colon (TSPO [1]; [10]): 3.38 ± 0.97 SUV
SUV ex vivo, Fat (TSPO [1]; [10]): 0.43 ± 0.21 SUV
SUV ex vivo, Heart (TSPO [1]; [10]): 22.81 ± 2.80 SUV
SUV ex vivo, Hippocampus (TSPO [1]; [10]): 0.39 ± 0.18 SUV
SUV ex vivo, Ileum (TSPO [1]; [10]): 6.41 ± 3.07 SUV
SUV ex vivo, Kidney (TSPO [1]; [10]): 12.52 ± 2.22 SUV
SUV ex vivo, Liver (TSPO [1]; [10]): 7.57 ± 1.64 SUV
SUV ex vivo, Lung (TSPO [1]; [10]): 18.39 ± 2.20 SUV
SUV ex vivo, Medulla (TSPO [1]; [10]): 0.59 ± 0.14 SUV
SUV ex vivo, Pancreas (TSPO [1]; [10]): 3.55 ± 0.52 SUV
SUV ex vivo, Parietal/temporal/occipital cortex (TSPO [1]; [10]): 0.32 ± 0.06 SUV
SUV ex vivo, Plasma (TSPO [1]; [10]): 0.18 ± 0.08 SUV
SUV ex vivo, Pons (TSPO [1]; [10]): 0.63 ± 0.08 SUV
SUV ex vivo, Red blood cells (TSPO [1]; [10]): 0.19 ± 0.18 SUV
SUV ex vivo, Spleen (TSPO [1]; [10]): 13.23 ± 2.64 SUV
SUV ex vivo, Stomach (TSPO [1]; [10]): 5.04 ± 0.82 SUV
SUV ex vivo, Striatum (TSPO [1]; [10]): 0.28 ± 0.07 SUV
SUV ex vivo, Submandibularis (TSPO [1]; [10]): 4.28 ± 1.02 SUV
SUV ex vivo, Testis (TSPO [1]; [10]): 0.98 ± 0.11 SUV
SUV ex vivo, Thymus (TSPO [1]; [10]): 3.36 ± 0.58 SUV
SUV ex vivo, Whole brain (TSPO [1]; [10]): 0.66 ± 0.16 SUV
SUV ex vivo, adrenal glands (mean ± SD) (TSPO [1]; pretreated with unlabelled PK11195, control and HSE groups together): 7.93 ± 5.87 SUV
Percentage of intact tracer present in the brain [2]: approximately 99%
Ki (TSPO [3]; read-out: K i (TSPO affinity)): 0.54 nM
TSPO affinity relative to (R)-[^11C]PK11195 (TSPO [3]; times higher affinity, ratio of K i values): 7.9 times
Inflammation-induced binding as compared with (R)-[^11C]PK11195 (TSPO [4]): comparable
logP [5]: 2.06
Uptake in TSPO-rich regions (cerebellum and olfactory bulb) as compared with (R)-[^11C]PK11195 (TSPO [6]): higher uptake
